In patent US4604380A, “C-23-substituted mycaminosyltylonolide compounds, pharmaceutical compositions and methods of use” (Eli Lilly and Company, priority 1985, dated 1986):
≈ marks a conversion by molar mass, not a printed value. Where “and” joins values, the source holds several entries; their conditions need not be identical. Equal values may be shown once. Read-outs that look alike come from different tables or passages of the source.

Columns and labels:
Staphylococcus aureus = assay: ED50 vs. Staphylococcus aureus experimental infection in mice (Table V); format: in vivo; conditions: sc, subcutaneous, two doses, dose protecting 50% of animals, read-out: ED50 Subcutaneous
Protocol: (§1) Certain formula 1a compounds have also shown in vivo antimicrobial activity against experimental bacterial infections. When two doses of test compound were administered to mice in experimental infections, the activity observed was measured as an ED50 value [effective dose in mg/kg to protect 50% of the test animals: see Warren Wick, et al., J. Bacteriol. 81, 233-235 (1961)].

Streptococcus pyogenes = assay: ED50 vs Streptococcus pyogenes experimental infection in mice (Table VI); format: in vivo; conditions: two doses, several values = results from more than one test
Protocol: as §1

[1] = test system: Mycoplasma gallisepticum 15E; assay: MIC, conventional broth-dilution microtiter test (Table IV); format: cell-based; conditions: Mycoplasmoides gallisepticum; broth-dilution microtiter; Mycoplasma gallisepticum 15E; read-out: MIC
Protocol: (§2) The MIC's s in Table III were determined by standard agar-dilution assays. The MIC's in Table IV were obtained using a conventional broth-dilution microtiter test.

[2] = test system: Pasteurella multocida 60A; assay: as above; format: cell-based; conditions: broth-dilution microtiter; Pasteurella multocida 60A, avian isolate; read-out: MIC
Protocol: as §2

[3] = test system: Pasteurella hemolytica 23C; assay: as above; format: cell-based; conditions: broth-dilution microtiter; Pasteurella hemolytica 23C; read-out: MIC
Protocol: as §2

Mycoplasma hyorhinis 29E = assay: as above; format: cell-based
Protocol: as §2

[4] = test system: Pasteurella hemolytica 22C; assay: as above; format: cell-based
Protocol: as §2

[5] = test system: Mycoplasma hyopneumoniae S5972; assay: as above; format: cell-based; conditions: Mesomycoplasma hyopneumoniae
Protocol: as §2

Mycoplasma synoviae 40A = assay: as above; format: cell-based; conditions: Mycoplasmopsis synoviae
Protocol: as §2

[6] = test system: Pasteurella hemolytica 41D; assay: as above; format: cell-based; conditions: broth-dilution microtiter; Pasteurella hemolytica 41D; read-out: MIC
Protocol: as §2

[7] = test system: Staphylococcus aureus 19C; assay: as above; format: cell-based; conditions: broth-dilution microtiter; Staphylococcus aureus 19C; read-out: MIC
Protocol: as §2

[8] = test system: Pasteurella multocida 68C; assay: as above; format: cell-based; conditions: broth-dilution microtiter; Pasteurella multocida 68C; read-out: MIC
Protocol: as §2

Streptococcus sp. 19F = assay: as above; format: cell-based
Protocol: as §2

[9] = test system: Mycoplasma gallisepticum 36H; assay: as above; format: cell-based; conditions: Mycoplasmoides gallisepticum
Protocol: as §2

[10] = test system: Pasteurella multocida 17E; assay: as above; format: cell-based; conditions: broth-dilution microtiter; Pasteurella multocida 17E, bovine isolate; read-out: MIC
Protocol: as §2

[11] = test system: Mycoplasma gallisepticum 29C; assay: as above; format: cell-based; conditions: Mycoplasmoides gallisepticum
Protocol: as §2

[12] = test system: Bordetella bronchisepticum 95B; assay: as above; format: cell-based
Protocol: as §2

[13] = test system: Pasteurella multocida 40G; assay: as above; format: cell-based; conditions: broth-dilution microtiter; Pasteurella multocida 40G; read-out: MIC
Protocol: as §2

[14] = test system: Pasteurella multocida 22A; assay: as above; format: cell-based; conditions: broth-dilution microtiter; Pasteurella multocida 22A; read-out: MIC
Protocol: as §2

[15] = test system: Streptococcus pneumoniae Park I; assay: microbe, parasite or virus in culture; format: cell-based
Protocol: as §2

[16] = test system: Staphylococcus aureus S13E; assay: MIC, standard agar-dilution assay (Table III); format: cell-based
Protocol: as §2

[17] = test system: Haemophilus influenzae C.L.; assay: MIC, standard agar-dilution assay (Table III); format: cell-based; conditions: agar dilution; Haemophilus influenzae C.L., ampicillin-sensitive strain; read-out: MIC
Protocol: as §2

[18] = test system: Staphylococcus epidermidis EPI1; assay: MIC, standard agar-dilution assay (Table III); format: cell-based
Protocol: as §2

[19] = test system: Staphylococcus aureus V41; assay: MIC, standard agar-dilution assay (Table III); format: cell-based; conditions: Staphylococcus aureus V41, penicillin-resistant strain
Protocol: as §2

[20] = test system: Staphylococcus aureus X400; assay: MIC, standard agar-dilution assay (Table III); format: cell-based
Protocol: as §2

[21] = test system: Haemophilus influenzae 76; assay: MIC, standard agar-dilution assay (Table III); format: cell-based; conditions: agar dilution; Haemophilus influenzae 76, ampicillin-resistant strain; read-out: MIC
Protocol: as §2

[22] = test system: Staphylococcus epidermidis 222; assay: MIC, standard agar-dilution assay (Table III); format: cell-based
Protocol: as §2

[23] = test system: Streptococcus Group D 2041; assay: MIC, standard agar-dilution assay (Table III); format: cell-based; conditions: GROUPD2041
Protocol: as §2

[24] = test system: Staphylococcus aureus X1.1; assay: MIC, standard agar-dilution assay (Table III); format: cell-based
Protocol: as §2

[25] = test system: Streptococcus Group D X66; assay: MIC, standard agar-dilution assay (Table III); format: cell-based
Protocol: as §2

[26] = test system: Streptococcus pyogenes C203; assay: MIC, standard agar-dilution assay (Table III); format: cell-based; conditions: agar dilution; Streptococcus pyogenes C203; read-out: MIC
Protocol: as §2

[27] = test system: Streptococcous pneumoniae; assay: ED50 vs. Streptococcous pneumoniae experimental infection in mice (Table VII); format: in vivo; conditions: Mus musculus, sc, subcutaneous, two doses, read-out: ED50 Subcutaneous
Protocol: as §1

Pasteurella multocida = assay: Activity in Pasteurella multocida-infected one-day-old chicks (Table VIII); format: in vivo; conditions: subcutaneous 30 mg/kg × 2, 1 and 4 hours post-challenge, all non-medicated chicks died within 24 hours
Protocol: Table VIII summarizes the results of tests in which illustrative compounds were evaluated against a Pasteurella infection in one-day-old chicks. The compounds were administered parenterally after challenge of the chicks with Pasteurella multocida (0.1 mL of a 10^-4 dilution of a twenty-hour tryptose broth culture of an avian P. multocida given subcutaneously). In these tests, all non-medicated infected chicks died within 24 hours of Pasteurella challenge. In the tests summarized in Table VIII, the compounds were administered by subcutaneous injection at a dosage of 30 mg/kg, 1 and 4 hours post-challenge of the chicks with P. multocida.

[28] = broth-dilution microtiter, Pasteurella hemolytica 22C, read-out: MIC
[29] = broth-dilution microtiter, Mycoplasma gallisepticum 36H, read-out: MIC
[30] = agar dilution, Streptococcus Group D 2041, read-out: MIC
[31] = agar dilution, Streptococcus Group D X66, read-out: MIC
[32] = Staphylococcus epidermidis, EPI1
[33] = agar dilution, Staphylococcus epidermidis 222, read-out: MIC

| SMILES | ED50 (Staphylococcus aureus) | ED50 (Streptococcus pyogenes; po, read-out: ED50 Oral) | MIC [1] | MIC [2] | MIC [3] | MIC [6] | MIC [7] | MIC [8] | MIC (Streptococcus sp. 19F) | MIC [10] | MIC [12] | MIC [13] | MIC [14] | MIC [16] | MIC [17] | MIC [19] | MIC [21] | MIC [24] | MIC [26] | ED50 [27] | also measured |
| --- | --- | --- | --- | --- | --- | --- | --- | --- | --- | --- | --- | --- | --- | --- | --- | --- | --- | --- | --- | --- | --- |
| CCC1OC(=O)CC(O)C(C)C(OC2OC(C)C(O)C(N(C)C)C2O)C(CC=O)CC(C)C(=O)C=CC(C)=CC1CN1C2CCCCC2C2CCCCC21 (centres unmarked) [Compound 25, 23-deoxy-23-(dodecahydro-9H--carbazol-9-yl)-OMT] | 7.69 mg/kg | 63 mg/kg | 50 µg/mL (≈ 65.9 µM) | 1.56 µg/mL (≈ 2.06 µM) | 1.56 µg/mL (≈ 2.06 µM) | 1.56 µg/mL (≈ 2.06 µM) | 0.78 µg/mL (≈ 1.03 µM) | 1.56 µg/mL (≈ 2.06 µM) | < 0.048 µg/mL | 1.56 µg/mL (≈ 2.06 µM) | 25 µg/mL (≈ 32.9 µM) | 1.56 µg/mL (≈ 2.06 µM) | 1.56 µg/mL (≈ 2.06 µM) | 0.5 µg/mL (≈ 0.659 µM) | 4 µg/mL (≈ 5.27 µM) | 0.5 µg/mL (≈ 0.659 µM) | 1 µg/mL (≈ 1.32 µM) | 0.5 µg/mL (≈ 0.659 µM) | 0.25 µg/mL (≈ 0.329 µM) | > 10 mg/kg | ED50 (Streptococcus pyogenes; sc, subcutaneous, read-out: ED50 Subcutaneous): 7.43 mg/kg; ED50 Subcutaneous (Streptococcus pyogenes; subcutaneous): > 10 mg/kg × 2; MIC (Mycoplasma hyorhinis 29E; Mycoplasma, 29E): < 0.048 µg/mL; MIC [4, 28]: 3.12 µg/mL (≈ 4.11 µM); MIC ([5]; broth-dilution microtiter, Mycoplasma hyopneumoniae S5972, read-out: MIC): < 0.012 µg/mL; MIC (Mycoplasma synoviae 40A; 40A): < 0.048 µg/mL; MIC [9, 29]: 50 µg/mL (≈ 65.9 µM); MIC ([11]; broth-dilution microtiter, Mycoplasma gallisepticum 29C, read-out: MIC): 0.097 µg/mL (≈ 0.128 µM); MIC ([15]; agar dilution, Streptococcus pneumoniae Park I, read-out: MIC): 0.125 µg/mL (≈ 0.165 µM); MIC ([18]; agar dilution, Staphylococcus epidermidis EPI1, read-out: MIC): 0.5 µg/mL (≈ 0.659 µM); MIC ([20]; agar dilution, Staphylococcus aureus X400, methicillin-resistant strain, read-out: MIC): 1 µg/mL (≈ 1.32 µM); MIC ([22]; Staphylococcus epidermidis, 222): 0.25 µg/mL (≈ 0.329 µM); MIC [23, 30]: 0.5 µg/mL (≈ 0.659 µM); MIC [25, 31]: 0.5 µg/mL (≈ 0.659 µM) |
| CCC1OC(=O)CC(O)C(C)C(OC2OC(C)C(O)C(N(C)C)C2O)C(CC=O)CC(C)C(=O)C=CC(C)=CC1CN1CC2(C)CC1CC(C)(C)C2 (centres unmarked) [Compound 23, 23-deoxy-23-(1,3,3-trimethyl-6-azabicyclo[3.2.1]octan-6-yl)-OMT] | 3.79 mg/kg | 100 mg/kg |  | 1.56 µg/mL (≈ 2.13 µM) | 1.56 µg/mL (≈ 2.13 µM) | 1.56 µg/mL (≈ 2.13 µM) | 1.56 µg/mL (≈ 2.13 µM) | 0.78 µg/mL (≈ 1.06 µM) | < 0.048 µg/mL | 0.78 µg/mL (≈ 1.06 µM) | 12.5 µg/mL (≈ 17.1 µM) | 0.78 µg/mL (≈ 1.06 µM) | 0.39 µg/mL (≈ 0.532 µM) | 0.5 µg/mL (≈ 0.682 µM) | 2 µg/mL (≈ 2.73 µM) | 0.5 µg/mL (≈ 0.682 µM) | 1 µg/mL (≈ 1.36 µM) | 0.5 µg/mL (≈ 0.682 µM) | 0.25 µg/mL (≈ 0.341 µM) | 3.6 mg/kg | Number of Deaths/Number Treated (Pasteurella multocida): 10/10; MIC (Mycoplasma hyorhinis 29E; broth-dilution microtiter, Mycoplasma hyorhinis 29E, read-out: MIC): 1.56 µg/mL (≈ 2.13 µM); MIC [4, 28]: 1.56 µg/mL (≈ 2.13 µM); MIC ([5]; S5972): 0.048 µg/mL (≈ 0.0655 µM); MIC (Mycoplasma synoviae 40A; 40A): < 0.048 µg/mL; MIC ([9]; 36H): 3.12 µg/mL (≈ 4.26 µM); MIC ([11]; 29C): < 0.048 µg/mL; MIC ([15]; Streptococcus pneumoniae, read-out: MIC): 0.06 µg/mL (≈ 0.0819 µM); MIC [18, 32]: 0.5 µg/mL (≈ 0.682 µM); MIC ([20]; Staphylococcus aureus, X400): 0.5 µg/mL (≈ 0.682 µM); MIC [22, 33]: 0.125 µg/mL (≈ 0.171 µM); MIC [23]: 0.5 µg/mL (≈ 0.682 µM); MIC [25]: 0.5 µg/mL (≈ 0.682 µM) |
| CCC1OC(=O)CC(O)C(C)C(OC2OC(C)C(O)C(N(C)C)C2O)C(CC=O)CC(C)C(=O)C=CC(C)=CC1CN1CCCC12CCCCC2 (centres unmarked) [Compound 31, 23-deoxy-23-(1-azaspiro[4.5]decan-1-yl)-OMT] | 2.15 mg/kg | 59.5 mg/kg | 50 µg/mL (≈ 69.5 µM) | 0.39 µg/mL (≈ 0.542 µM) | 0.39 µg/mL (≈ 0.542 µM) | 0.39 µg/mL (≈ 0.542 µM) | 0.39 µg/mL (≈ 0.542 µM) | 0.39 µg/mL (≈ 0.542 µM) | < 0.048 µg/mL | 0.39 µg/mL (≈ 0.542 µM) | 6.25 µg/mL (≈ 8.69 µM) | 0.195 µg/mL (≈ 0.271 µM) | 0.39 µg/mL (≈ 0.542 µM) | 0.5 µg/mL (≈ 0.695 µM) | 2 µg/mL (≈ 2.78 µM) | 0.5 µg/mL (≈ 0.695 µM) | 2 µg/mL (≈ 2.78 µM) | 0.5 µg/mL (≈ 0.695 µM) | 0.125 µg/mL (≈ 0.174 µM) | 9.22 mg/kg | Number of Deaths/Number Treated (Pasteurella multocida): 0/10 and 3/10; MIC ([4]; Pasteurella, 22C): 0.78 µg/mL (≈ 1.08 µM); MIC ([5]; S5972): 0.097 µg/mL (≈ 0.135 µM); MIC (Mycoplasma synoviae 40A; broth-dilution microtiter, Mycoplasma synoviae 40A, read-out: MIC): 0.195 µg/mL (≈ 0.271 µM); MIC [9, 29]: 50 µg/mL (≈ 69.5 µM); MIC ([11]; 29C): 0.097 µg/mL (≈ 0.135 µM); MIC ([15]; Streptococcus pneumoniae): 0.03 µg/mL (≈ 0.0417 µM); MIC [18, 32]: 0.5 µg/mL (≈ 0.695 µM); MIC ([20]; Staphylococcus aureus, X400): 0.5 µg/mL (≈ 0.695 µM); MIC [22, 33]: 0.25 µg/mL (≈ 0.348 µM); MIC [23, 30]: 0.25 µg/mL (≈ 0.348 µM); MIC [25, 31]: 0.25 µg/mL (≈ 0.348 µM) |
